Consider 1 compound from patent US20040127518A1, “Modulation of anxiety through blockade of anandamide hydrolysis” (priority 2002, published 2004).

SMILES strings stand for the structures.

Data set [1] in a line: Mouse hot-plate test. Particulars: 0.5 mg kg-1 i.p., 60 min before test. Format: in vivo. How it is done: (§1) We dissolved FAAH inhibitors in polyethyleneglycol/water (1/1) and rimonabant in saline. Formalin and hot-plate assays were carried out in the mouse, as described (Beltramo, M. et al., FEBS Lett., 403, 263-267 (1997)).
(§2) The compounds exerted, however, moderate antinociceptive effects in two models of acute pain.
Background: Hot-plate and tail-flick tests time the reaction to a heat stimulus.

Data set [2] can be described thus: Catalepsy. The following applies: UCM532 10 mg kg-1 i.p.; UCM597 0.3 mg kg-1 i.p.; data not shown. Format: in vivo. The text has this: (§3) We dissolved all compounds in saline/Tween 80/polyethylenglycol (90/5/5) and administered them by i.p. injection immediately before tests. We measured body temperature with a rectal probe (Type T, Copper-Costantan Thermocouple-Physitemp Instruments INC, Clifton, N.J.) connected to a digital thermometer (model BAT-12 Physitemp Instruments INC, Clifton, N.J.); and catalepsy using the procedure described in Tseng and Craft (Tseng, A. H. et al., Eur. J. Pharmacol., 430, 41-47 (2001)).

Data set [3] can be described thus: Mouse formalin test. Format: in vivo. The following applies: 0.5 mg kg-1 i.p. As to the method: as §1, §2
Data set [4] addresses T1, rat brain monoglyceride lipase (MGL) (Rattus norvegicus, UniProt Q8R431).
T1 sequence (Q8R431 1-303): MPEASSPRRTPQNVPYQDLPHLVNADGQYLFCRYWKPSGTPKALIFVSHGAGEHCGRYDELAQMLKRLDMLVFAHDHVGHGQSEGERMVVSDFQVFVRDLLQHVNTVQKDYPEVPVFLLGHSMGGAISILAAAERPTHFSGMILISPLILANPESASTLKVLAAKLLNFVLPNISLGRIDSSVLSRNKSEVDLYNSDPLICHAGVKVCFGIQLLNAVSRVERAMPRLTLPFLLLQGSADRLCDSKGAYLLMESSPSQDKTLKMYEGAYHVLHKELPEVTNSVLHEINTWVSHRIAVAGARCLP
The data set is described as follows: Cytosol MGL activity, 2-mono-oleoyl-glycerol as substrate.
Description: (§4) We prepared cell fractions from rat brain homogenates, and assayed membrane FAAH activity and cytosol MGL activity using anandamide [ethanolamine-3H] (American Radiolabeled Chemicals, ARC (St. Louis Mo.), 60 Ci/mmol) and 2-mono-oleoyl-glycerol-[glycerol-1,2,3^−3H] (ARC, St. Louis Mo., 20 Ci/mmol), respectively, as substrates (Dinh, T. Proc. Natl. Acad. Sci. U.S.A. (2002)). We conducted [^3H]anandamide transport assays in human astrocytoma cells (Piomelli, D. et al., Proc. Natl. Acad. Sci. U.S.A., 96, 5802-5807 (1999)); CB1 and CB2 binding assays in rat cerebellar membranes and CB2-overexpressing Chinese hamster ovary cells (Receptor Biology-Perkin Elmer, Wellesley, Mass.), respectively, using [^3H]WIN-55212-2 (NEN-Dupont, Boston, Mass., 40-60 Ci/mmol) as a ligand (Devane, W. A. et al. Science, 258, 1946-1949 (1992)); cholinesterase assays with a commercial kit (Sigma, St. Louis, Mo.), using purified enzymes (electric eel acetylcholinesterase type V-S and horse serum cholinesterase; both from Sigma, St. Louis, Mo.) and following manufacturer's instructions.

For data set [5], the system named is anandamide transport. The data set is described as follows: [3H]anandamide transport assay in human astrocytoma cells. Particulars: human astrocytoma cells.
Description: as §4
Data set [6] has as its target CB2 receptor (Homo sapiens, UniProt P34972). Put plainly: CB2 binding assay in CB2-overexpressing Chinese hamster ovary cells, [3H]WIN-55212-2.
Description: as §4
For data set [7], the target named is horse plasma butyryl cholinesterase (Equus caballus, UniProt P81908). Put plainly: Cholinesterase assay with commercial kit, purified enzyme.
Description: as §4
The nature of data set [8]: Body temperature (rectal probe). Format: in vivo.
Description: as §3

The nature of data set [9]: Elevated zero maze test. Format: in vivo, rat. The following applies: adult rats; i.p. 30 min before test; UCM532 5 and 10 mg kg-1; UCM597 0.05-0.1 mg kg-1. How it is done:
We dissolved FAAH inhibitors and rimonabant in dimethylsulfoxide (DMSO)/saline (7/3 and 9/1, respectively); we administered FAAH inhibitors by i.p. injection 30 min before tests and rimonabant 30 min before UCM532. The elevated zero maze was comprised of a black Perspex annular platform (105 cm diameter, 10 cm width) elevated to 65 cm above ground level, divided equally into four quadrants (Bickerdike, M. J. et al., Eur. J. Pharmacol., 271, 403-411 (1994); Shepherd, J. K. et al., Psychopharmacology, 116, 56-64 (1994)). […] We placed the rats in a closed quadrant and video recorded them for 5-min periods, thoroughly cleaning the maze between sessions. […] Results are expressed as percent time in open quadrant/total time (percent time open). Results were analyzed by one-way ANOVA followed by Tukey's test. We recorded motor activity of each rat in an Opto-Varimex cage (Columbus Instruments, Columbus, Ohio) linked on-line to a computer and placed in a sound-attenuated room illuminated by a 20-W white light. The amount of time spent in ambulatory activity was analyzed using an Auto-Track software (Columbus Instruments, Columbus, Ohio) as described elsewhere (Ali, M. M. et al., Neurosci. Lett., 284, 57-60 (2000); Wedzony, K. et al., Neuropsychopharmacology, 23, 547-559 (2000)). […] We analyzed data by overall one-way ANOVA followed by Tukey's test for individual between-group comparisons. […]

Data set [10] has as its system rat cortical neurons. The data set is described as follows: Transport, accumulation and release of non-metabolized [3H]anandamide in cortical neurons. Format: cell-based.
The target in data set [11] is electric eel acetylcholinesterase (Electrophorus electricus, UniProt O42275).
Data set [12] in a line: Food intake in free-feeding rats. Format: in vivo, rat. The following applies: UCM532 10 mg kg-1 i.p.; UCM597 0.3 mg kg-1 i.p.; data not shown. As to the method:
We recorded food intake in free-feeding rats by using an automated system (Scipro Inc., New York). Rats were acclimated to the test cages for three days prior to the tests. Each test began at the onset of the dark phase and lasted for 24 hours.

The test system of data set [13] is brain content of anandamide, other fatty acid ethanolamides and 2-AG. The data set is described as follows: Brain levels of fatty acid ethanolamides and 2-AG by HPLC/MS. Format: in vivo, rat. Particulars: 0.3 mg kg-1 i.p., 2 h after injection. The text has this:
We extracted lipids from tissues with a methanol-chloroform mixture and fractionated them by silica gel column chromatography (Giuffrida, A. et al., Anal. Biochem., 280, 87-93 (2000)). Anandamide and other fatty acid derivatives were quantified by HPLC/MS, using an isotope dilution method (Giuffrida, A. et al., Anal. Biochem., 280, 87-93 (2000)).

Chain of horse plasma butyryl cholinesterase (P81908 whole entry): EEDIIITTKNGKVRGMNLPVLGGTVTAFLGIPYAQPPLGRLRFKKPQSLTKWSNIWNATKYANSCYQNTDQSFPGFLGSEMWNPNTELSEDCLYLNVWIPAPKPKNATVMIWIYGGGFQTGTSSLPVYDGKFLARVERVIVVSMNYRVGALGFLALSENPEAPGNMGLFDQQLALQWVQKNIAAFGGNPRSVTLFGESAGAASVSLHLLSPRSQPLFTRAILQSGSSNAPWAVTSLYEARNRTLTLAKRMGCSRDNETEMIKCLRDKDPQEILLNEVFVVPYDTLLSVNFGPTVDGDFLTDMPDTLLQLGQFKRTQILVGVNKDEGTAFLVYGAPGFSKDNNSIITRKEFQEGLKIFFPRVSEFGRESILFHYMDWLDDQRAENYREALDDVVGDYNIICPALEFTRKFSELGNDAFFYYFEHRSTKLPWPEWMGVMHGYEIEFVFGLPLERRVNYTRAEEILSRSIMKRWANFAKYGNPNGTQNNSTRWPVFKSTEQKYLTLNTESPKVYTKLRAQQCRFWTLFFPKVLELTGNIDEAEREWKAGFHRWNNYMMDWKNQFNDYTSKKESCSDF
Chain of CB2 receptor (P34972 whole entry): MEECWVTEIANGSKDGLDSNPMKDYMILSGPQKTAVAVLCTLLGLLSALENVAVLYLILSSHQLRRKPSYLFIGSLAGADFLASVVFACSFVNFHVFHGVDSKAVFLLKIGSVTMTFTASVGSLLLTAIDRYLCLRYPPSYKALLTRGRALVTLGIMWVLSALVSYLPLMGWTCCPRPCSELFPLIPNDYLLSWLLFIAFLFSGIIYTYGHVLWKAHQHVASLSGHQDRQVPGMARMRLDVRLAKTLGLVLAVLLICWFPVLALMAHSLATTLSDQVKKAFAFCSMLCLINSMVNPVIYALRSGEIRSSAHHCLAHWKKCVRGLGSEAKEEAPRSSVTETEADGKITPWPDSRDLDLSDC
Chain of electric eel acetylcholinesterase (O42275 whole entry): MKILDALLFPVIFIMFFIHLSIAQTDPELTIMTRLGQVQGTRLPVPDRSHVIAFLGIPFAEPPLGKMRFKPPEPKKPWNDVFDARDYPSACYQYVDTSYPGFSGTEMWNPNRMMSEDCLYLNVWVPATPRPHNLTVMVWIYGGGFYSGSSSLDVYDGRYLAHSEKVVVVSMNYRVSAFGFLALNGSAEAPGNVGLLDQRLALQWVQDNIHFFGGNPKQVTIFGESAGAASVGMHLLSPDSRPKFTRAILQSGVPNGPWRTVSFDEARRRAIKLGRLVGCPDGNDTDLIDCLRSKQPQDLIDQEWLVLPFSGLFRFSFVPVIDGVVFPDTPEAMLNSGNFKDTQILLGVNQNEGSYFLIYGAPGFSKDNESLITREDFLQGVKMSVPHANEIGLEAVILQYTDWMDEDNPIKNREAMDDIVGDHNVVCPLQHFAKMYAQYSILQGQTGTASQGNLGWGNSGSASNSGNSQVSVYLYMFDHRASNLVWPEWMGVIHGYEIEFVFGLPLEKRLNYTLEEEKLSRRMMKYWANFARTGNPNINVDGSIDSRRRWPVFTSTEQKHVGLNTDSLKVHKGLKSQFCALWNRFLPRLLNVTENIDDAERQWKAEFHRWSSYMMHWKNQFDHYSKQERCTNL

With `NC(=O)c1cccc(-c2cccc(OC(=O)NC3CCCCC3)c2)c1` [UCM597, cyclohexylcarbamic acid 3′-carbamoylbiphenyl-3-yl ester], the “response latencies, hot-plate test” value in [1] is given as “significantly lengthened”. In [2], the “catalepsy (rigid immobility)” value is recorded as “no catalepsy”. In data set [3], the “early phase of formalin-evoked pain behavior” value is “attenuated” and the “late phase of formalin-evoked pain behavior” value was “little or no change”. Further, in data set [4], the “effect on MGL activity (in words)” value is “did not affect”. Further, the “effect on anandamide transport (in words)” value in data set [5] is “no effect”. The “effect on binding of a high-affinity ligand to CB2 (in words)” value in [6] is given as “no effect”. Further, the “effect on butyryl cholinesterase activity (in words)” value in data set [7] is reported as “did not affect”. In data set [8] (UCM532 10 mg kg-1 i.p., UCM597 0.3 mg kg-1 i.p.), the “body temperature / hypothermia, compound alone” value was “no effect and no”. The “decrease in body temperature elicited by anandamide” value in [8] (UCM597 0.3 mg kg-1 i.p. 30 min before anandamide 5 mg kg-1 i.p.) is “intensified and prolonged”. Besides, the “percent time open, elevated zero maze” value in [9] is reported as “anxiolytic-like responses”. Also, in data set [10] (4-min incubation, UCM532 3 μM, UCM597 10 nM, AM404 10 μM), the “accumulation of non-metabolized [3H]anandamide in neurons” value is reported as “promote accumulation”. Moreover, the “accumulated [3H]anandamide released back into the medium” value in data set [10] (UCM597-treated (10 nM) neurons, 15 min in [3H]anandamide-free solution, n=3) worked out at 42.6±8.7%. In addition, the “carrier-mediated uptake of [3H]anandamide” value in data set [10] (rat cortical neurons) is reported as “without reducing”. In [11], the “effect on acetylcholinesterase activity (in words)” value is on record as “did not affect”. Further, the “hyperphagia (increased food intake)” value in [12] is listed as “no”. In data set [13], the “brain content of 2-AG” value is on record as “did not change” and the “brain content of anandamide” value is on record as “significant elevations”. Moreover, in data set [13] (n=8-15), the “brain content of oleoylethanolamide” value is 725.3 ± 28.6 pmol g^−1 of tissue and the “brain content of palmitoylethanolamide” value is 1324±395 pmol g^−1 of tissue.
